Like-named read-outs stand apart in the source and are kept apart here.
Key:
MV4-11 [1] = experiment: Secondary dose-response HTS, Cell Titer Glo; assay type: cell-based, human
MOLM-13 = experiment: Secondary dose-response HTS, Cell Titer Glo; assay type: cell-based, human
CMK = experiment: Secondary dose-response HTS, Cell Titer Glo; assay type: cell-based, human; conditions: CMK; for EC50: Homo sapiens, read-out: average effective concentration, CMK
CHRF288-11 [2] = experiment: Secondary dose-response HTS, Cell Titer Glo; assay type: cell-based, human; conditions: secondary high-throughput screen, CHRF288-11; for EC50: Homo sapiens, HTS, read-out: average effective concentration, CHRF288-11
ML2 = experiment: Secondary dose-response HTS, Cell Titer Glo; assay type: cell-based, human; conditions: for EC50: Homo sapiens
M07e = experiment: cells; parameters: species or system AML cell lines (8); Secondary HTS, 10-point dose-response in triplicate, Cell Titer Glo viability, four-parameter fit EC50; conditions: M-07e, 72 h, read-out: M07e
CMS = experiment: cells; parameters: species or system AML cell lines (8); Secondary HTS, 10-point dose-response in triplicate, Cell Titer Glo viability, four-parameter fit EC50; conditions: 72 h, read-out: CMS
U937 = experiment: Secondary dose-response HTS, Cell Titer Glo; assay type: cell-based, human; conditions: for EC50: Homo sapiens
CHRF288-11 [3] = experiment: cells; parameters: species or system AML cell lines (8); Secondary HTS, 10-point dose-response in triplicate, Cell Titer Glo viability, four-parameter fit EC50; conditions: 72 h, read-out: CHRF288-11
MV4-11 [4] = experiment: cells; parameters: species or system AML cell lines (8); Secondary HTS, 10-point dose-response in triplicate, Cell Titer Glo viability, four-parameter fit EC50; conditions: Homo sapiens, MV4-11, 72 h, read-out: MV4-11
[5] = secondary high-throughput screen, MV4-11
[6] = secondary high-throughput screen, MOLM-13
[7] = secondary high-throughput screen
[8] = secondary high-throughput screen, ML-2
[9] = Homo sapiens, secondary high-throughput screen, MV4-11, read-out: average effective concentration, MV4-11
[10] = U-937, secondary high-throughput screen, U937, read-out: average effective concentration, U937
[11] = secondary high-throughput screen, ML-2, read-out: average effective concentration, ML-2
[12] = Homo sapiens, secondary high-throughput screen, MOLM-13, read-out: average effective concentration, MOLM-13
[13] = secondary high-throughput screen, U937
[14] = U-937, read-out: average effective concentration, U937
[15] = ML-2, read-out: average effective concentration, ML-2

## COc1cc(O)c2c(c1)/C=C/C[C@H](O)[C@H](O)C(=O)/C=C\C[C@H](C)OC2=O [(5Z)-7-OXOZEAENOL]
MV4-11 [1]; [5]
  average effective concentration, MV4-11: Inactive
MOLM-13; [6]
  average effective concentration, MOLM-13: Inactive

## N#C/C(=C\c1ccc(-c2cc(Cl)ccc2Cl)o1)C(=O)Nc1cccc2ncccc12 [AGK 2]
MV4-11 [1]; [5]
  average effective concentration, MV4-11: Inactive
CMK; [7]
  average effective concentration, CMK: Inactive
CHRF288-11 [2]
  average effective concentration, CHRF288-11: Inactive
ML2; [8]
  average effective concentration, ML-2: Inactive
MOLM-13; [6]
  average effective concentration, MOLM-13: Inactive

## COc1cc(N2CCC(N3CCN(C)CC3)CC2)ccc1Nc1ncc(Cl)c(Nc2ccccc2P(C)(C)=O)n1 [AP26113]
M07e
  EC50: > 10 µM
MV4-11 [1]; [9]
  EC50: 600 nM
CMS
  EC50: > 10 µM
U937; [10]
  EC50: 7.8 µM
CMK; [7]
  EC50: 6500 nM
CHRF288-11 [2]
  EC50: 6 µM
ML2; [11]
  EC50: 4 µM
MOLM-13; [12]
  EC50: 260 nM

## CC(C)C[C@H](NC(=O)[C@H](Cc1ccccc1)NC(=O)c1cnccn1)B(O)O [Bortezomib]
CHRF288-11 [3]
  EC50: 0.0021 µM

## C=CC(=O)Nc1cccc(Nc2nc(Nc3ccc(OCCOC)cc3)ncc2F)c1 [CC-292 (AVL-292)]
MV4-11 [1]; [5]
  average effective concentration, MV4-11: Inactive
CHRF288-11 [2]
  average effective concentration, CHRF288-11: Inactive
MOLM-13; [6]
  average effective concentration, MOLM-13: Inactive

## CS(=O)(=O)N1CCc2c(-c3cnc(N)nc3)nc(N3CCOCC3)nc21 [CH-5132799]
M07e
  EC50: > 10 µM
MV4-11 [1]; [9]
  EC50: 3900 nM
CMS
  EC50: > 10 µM
U937; [10]
  EC50: 4 µM
CMK; [7]
  EC50: 1500 nM
CHRF288-11 [2]
  EC50: 9.4 µM
ML2; [11]
  EC50: 6.9 µM
MOLM-13; [12]
  EC50: 2500 nM

## Br.Cc1cc2nc(NCCCO)n(CC(=O)c3cc(C(C)(C)C)c(O)c(C(C)(C)C)c3)c2cc1C [CID-2858522]
MV4-11 [1]; [5]
  average effective concentration, MV4-11: Inactive
CMK; [7]
  average effective concentration, CMK: Inactive
CHRF288-11 [2]
  average effective concentration, CHRF288-11: Inactive
MOLM-13; [6]
  average effective concentration, MOLM-13: Inactive

## COc1cc2ncnc(-n3nc(-c4ccccn4)nc3N)c2cc1OC [CP-466722]
MV4-11 [1]; [5]
  average effective concentration, MV4-11: Inactive
U937; [13]
  average effective concentration, U937: Inactive
CMK; [7]
  average effective concentration, CMK: Inactive
CHRF288-11 [2]
  average effective concentration, CHRF288-11: Inactive
ML2; [8]
  average effective concentration, ML-2: Inactive
MOLM-13; [6]
  average effective concentration, MOLM-13: Inactive

## Cc1cc(Cl)ccc1OCCCC(=O)NO [DROXINOSTAT]
MV4-11 [1]; [5]
  average effective concentration, MV4-11: Inactive
U937; [13]
  average effective concentration, U937: Inactive
CMK; [7]
  average effective concentration, CMK: Inactive
ML2; [8]
  average effective concentration, ML-2: Inactive
MOLM-13; [6]
  average effective concentration, MOLM-13: Inactive

## CN(C)C1CCN(C(=O)c2ccc(NC(=O)Nc3ccc(-c4nc(N5CCOCC5)nc(N5CCOCC5)n4)cc3)cc2)CC1 [Gedatolisib]
MV4-11 [1]; [9]
  EC50: 47 nM
U937; [10]
  EC50: 0.024 µM
CMK; [7]
  EC50: 7700 nM
MOLM-13; [12]
  EC50: 190 nM

## O=C(c1ccc(Nc2nccc(-c3cc4ccccc4s3)n2)cc1)N1CCC(N2CCCC2)CC1 [IKK 16]
MV4-11 [1]; [5]
  average effective concentration, MV4-11: Inactive
MOLM-13; [6]
  average effective concentration, MOLM-13: Inactive

## Cc1ccc(NCCCc2ccccc2)c(N)c1 [JSH-23]
MV4-11 [1]; [5]
  average effective concentration, MV4-11: Inactive
MOLM-13; [6]
  average effective concentration, MOLM-13: Inactive

## CO[C@@H]1[C@H](N(C)C(=O)c2ccccc2)C[C@H]2O[C@]1(C)n1c3ccccc3c3c4c(c5c6ccccc6n2c5c31)C(=O)NC4 [MIDOSTAURIN]
ML2; [11]
  EC50: 0.017 µM
MOLM-13; [12]
  EC50: 65 nM

## NC(=O)c1cccc2cn(-c3ccc([C@@H]4CCCNC4)cc3)nc12 [NIRAPARIB]
MV4-11 [1]; [9]
  EC50: > 10000 nM
U937; [10]
  EC50: > 10 µM
CMK; [7]
  EC50: 280 nM
CHRF288-11 [2]
  EC50: 0.22 µM
ML2; [11]
  EC50: 0.18 µM
MOLM-13; [12]
  EC50: 7600 nM

## O=c1cc(N2CCOCC2)oc2c(-c3cccc4c3sc3ccccc34)cccc12 [NU 7441]
MV4-11 [1]; [5]
  average effective concentration, MV4-11: Inactive
U937; [13]
  average effective concentration, U937: Inactive
CMK; [7]
  average effective concentration, CMK: Inactive
CHRF288-11 [2]
  average effective concentration, CHRF288-11: Inactive
MOLM-13; [6]
  average effective concentration, MOLM-13: Inactive

## CCNC(=O)c1noc(-c2cc(C(C)C)c(O)cc2O)c1-c1ccc(CN2CCOCC2)cc1 [NVP-AUY922]
M07e
  EC50: > 10 µM
MV4-11 [1]; [9]
  EC50: 1 nM
CMS
  EC50: > 10 µM
U937; [10]
  EC50: 0.001 µM
CMK; [7]
  EC50: 1 nM
CHRF288-11 [2]
  EC50: 0.021 µM
ML2; [11]
  EC50: 0.023 µM
MOLM-13; [12]
  EC50: 1 nM

## CN(c1ncccc1CNc1nc(Nc2ccc3c(c2)CC(=O)N3)ncc1C(F)(F)F)S(C)(=O)=O [PF-00562271]
MV4-11 [1]; [5]
  average effective concentration, MV4-11: Inactive
CHRF288-11 [2]
  average effective concentration, CHRF288-11: Inactive
MOLM-13; [6]
  average effective concentration, MOLM-13: Inactive

## COc1cc(/C=C/c2ccc(O)cc2)cc(OC)c1 [PTEROSTILBENE]
M07e
  EC50: > 10 µM
CMS
  EC50: > 10 µM
CHRF288-11 [3]
  EC50: > 10 µM
MV4-11 [4]
  EC50: > 10 µM
U937; [14]
  EC50: > 10 µM
CMK
  EC50: 1400 nM
ML2; [15]
  EC50: > 10 µM
MOLM-13; [12]
  EC50: > 10000 nM

## Nc1ccc2ncnc(NCCc3ccc(Oc4ccccc4)cc3)c2c1 [QNZ]
MV4-11 [1]; [5]
  average effective concentration, MV4-11: Inactive
CMK; [7]
  average effective concentration, CMK: Inactive
CHRF288-11 [2]
  average effective concentration, CHRF288-11: Inactive
ML2; [8]
  average effective concentration, ML-2: Inactive
MOLM-13; [6]
  average effective concentration, MOLM-13: Inactive

## O=C(CCCCCCNC(=O)c1cnc(N(c2ccccc2)c2ccccc2)nc1)NO [ROCILINOSTAT]
MV4-11 [1]; [5]
  average effective concentration, MV4-11: Inactive
MOLM-13; [6]
  average effective concentration, MOLM-13: Inactive

## O=C(Nc1ncc([N+](=O)[O-])s1)c1ccc([N+](=O)[O-])c(Cl)c1 [SM-7368]
MV4-11 [1]; [5]
  average effective concentration, MV4-11: Inactive
CMK; [7]
  average effective concentration, CMK: Inactive
CHRF288-11 [2]
  average effective concentration, CHRF288-11: Inactive
MOLM-13; [6]
  average effective concentration, MOLM-13: Inactive

## CN(C)CCCNc1c2ccccc2nc2c1[nH]c1ccccc12 [SYUIQ-5]
MV4-11 [1]; [5]
  average effective concentration, MV4-11: Inactive
CMK; [7]
  average effective concentration, CMK: Inactive

## CNC(=O)c1cc(Oc2ccc(NC(=O)Nc3ccc(Cl)c(C(F)(F)F)c3)cc2)ccn1 [Sorafenib, reference compound]
U937; [10]
  EC50: > 10 µM
CMK; [7]
  average effective concentration, CMK: 387
ML2; [11]
  EC50: > 10 µM
MOLM-13; [12]
  EC50: 18 nM

## Nc1nc(NC2CC2)cc(-c2cccc(Cl)c2Cl)n1 [TH588]
MV4-11 [1]; [5]
  average effective concentration, MV4-11: Inactive
CHRF288-11 [2]
  average effective concentration, CHRF288-11: Inactive
MOLM-13; [6]
  average effective concentration, MOLM-13: Inactive

## Cc1cc(Nc2cc(N3CCN(C)CC3)nc(Sc3ccc(NC(=O)C4CC4)cc3)n2)[nH]n1 [TOZASERTIB]
MV4-11 [1]; Homo sapiens, MV4-11, read-out: average effective concentration, MV4-11
  EC50: 68 nM
U937; [14]
  EC50: > 10 µM
CMK
  EC50: 1400 nM
ML2; [15]
  EC50: > 10 µM
MOLM-13; Homo sapiens, MOLM-13, read-out: average effective concentration, MOLM-13
  EC50: 39 nM

## CCN(CCCOc1ccc2c(Nc3cc(CC(=O)Nc4cccc(F)c4)n[nH]3)ncnc2c1)CCOP(=O)(O)O [barasertib]
M07e
  EC50: > 10 µM
CMS
  EC50: > 10 µM
CHRF288-11 [3]
  EC50: > 10 µM

## AZD4547
MV4-11 [1]; secondary high-throughput screen, MV4-11, read-out: average effective concentration, MV4-11
  EC50: 7800 nM
MOLM-13; secondary high-throughput screen, MOLM-13, read-out: average effective concentration, MOLM-13
  EC50: 4100 nM
